According to the NIST ThermoML archive (doi:10.1016/j.fluid.2005.09.019):
± gives the expanded uncertainty stated by the source.

Experiment: wn = mass fraction of the nth substance listed
Details: Other PVT measurement

CCCCCCCCOC(=O)c1cccc(-c2cccc(C(=O)OCCCCCCCC)c2)c1 [dioctyl [1,1'-biphenyl]-3,3'-dicarboxylate] + O=C=O
Details	mass density [kg/m3]
294.95 K, 21200 kPa, Gas, w1 = 0.018	883 ± 27
295.55 K, 15610 kPa, Gas, w1 = 0.62	1089 ± 33
296.05 K, 6100 kPa, Fluid (supercritical or subcritical phases), w1 = 0.277	750 ± 23
298.55 K, 6480 kPa, Fluid (supercritical or subcritical phases), w1 = 0.277	734 ± 22
302.15 K, 7070 kPa, Fluid (supercritical or subcritical phases), w1 = 0.277	701 ± 21
304.15 K, 7450 kPa, Fluid (supercritical or subcritical phases), w1 = 0.277	682 ± 20
305.75 K, 23790 kPa, Gas, w1 = 0.018	856 ± 26
306.05 K, 16070 kPa, Gas, w1 = 0.62	1076 ± 32
312.65 K, 17750 kPa, Gas, w1 = 0.62	1052 ± 32
313.75 K, 126340 kPa, Gas, w1 = 0.496	1150 ± 35
318.65 K, 92850 kPa, Gas, w1 = 0.496	1121 ± 34
324.55 K, 104160 kPa, Gas, w1 = 0.092	1160 ± 35
324.65 K, 110450 kPa, Gas, w1 = 0.286	1131 ± 34
326.85 K, 147870 kPa, Gas, w1 = 0.131	1240 ± 37
328.15 K, 88980 kPa, Gas, w1 = 0.092	1124 ± 34
329.05 K, 27960 kPa, Gas, w1 = 0.018	804 ± 24
329.05 K, 90520 kPa, Gas, w1 = 0.286	1097 ± 33
329.05 K, 137580 kPa, Gas, w1 = 0.256	1150 ± 35
329.15 K, 121140 kPa, Gas, w1 = 0.388	1178 ± 35
329.35 K, 116110 kPa, Gas, w1 = 0.201	1141 ± 34
330.85 K, 105180 kPa, Gas, w1 = 0.388	1139 ± 34
330.85 K, 113860 kPa, Gas, w1 = 0.256	1125 ± 34
331.25 K, 106000 kPa, Gas, w1 = 0.131	1160 ± 35
332.25 K, 83070 kPa, Gas, w1 = 0.286	1083 ± 33
332.65 K, 20850 kPa, Gas, w1 = 0.62	1031 ± 31
333.45 K, 68350 kPa, Gas, w1 = 0.496	1075 ± 32
333.65 K, 93560 kPa, Gas, w1 = 0.201	1111 ± 33
340.55 K, 73300 kPa, Gas, w1 = 0.092	1062 ± 32
341.95 K, 70330 kPa, Gas, w1 = 0.286	1044 ± 31
344.15 K, 77780 kPa, Gas, w1 = 0.388	1077 ± 32
344.35 K, 77640 kPa, Gas, w1 = 0.256	1045 ± 31
345.15 K, 74290 kPa, Gas, w1 = 0.201	1048 ± 31
347.45 K, 60240 kPa, Gas, w1 = 0.496	1049 ± 31
348.95 K, 30510 kPa, Gas, w1 = 0.018	760 ± 23
350.05 K, 73950 kPa, Gas, w1 = 0.131	1054 ± 32
352.15 K, 66510 kPa, Gas, w1 = 0.092	1019 ± 31
352.95 K, 62980 kPa, Gas, w1 = 0.286	1010 ± 30
353.95 K, 24590 kPa, Gas, w1 = 0.62	1013 ± 30
353.95 K, 69580 kPa, Gas, w1 = 0.256	1015 ± 30
358.75 K, 65340 kPa, Gas, w1 = 0.201	1005 ± 30
360.85 K, 67620 kPa, Gas, w1 = 0.388	876 ± 26
363.25 K, 57970 kPa, Gas, w1 = 0.496	997 ± 30
365.65 K, 63340 kPa, Gas, w1 = 0.092	979 ± 29
365.85 K, 33480 kPa, Gas, w1 = 0.018	726 ± 22
366.35 K, 66790 kPa, Gas, w1 = 0.131	1002 ± 30
366.65 K, 59240 kPa, Gas, w1 = 0.286	976 ± 29
369.85 K, 63030 kPa, Gas, w1 = 0.256	969 ± 29
370.45 K, 27170 kPa, Gas, w1 = 0.62	997 ± 30
372.25 K, 61790 kPa, Gas, w1 = 0.201	968 ± 29
